Reference: PubChem BioAssay (NCI)
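Exposure lasted 48 hours, with cells grown in 96-well plates and compounds tested at five concentrations. GI50: concentration for 50% inhibition of growth. TGI denotes the concentration required for complete inhibition of growth.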

Columns and labels:
Assay in all cases: inhibition of tumour cell growth, NCI panel, 48 h; in the data active means GI50 below about 0.43 µM; inactive means the rest
[1] = tested on: 786-0 renal
[2] = tested on: LOX IMVI melanoma
[3] = tested on: OVCAR-8 ovarian
[4] = tested on: TK-10 renal
[5] = tested on: SF-295 CNS
[6] = tested on: MDA-MB-435
[7] = tested on: HOP-92 NSCLC
[8] = tested on: U251 CNS
[9] = tested on: UACC-257 melanoma
[10] = tested on: MOLT-4 leukemia
[11] = tested on: SF-539 CNS

CCOC(=O)C(NC(=O)OCc1ccccc1)C(=O)O (configuration not stated)
> 100 µM: TGI [1] | TGI [2] | TGI [3] | TGI [4] | TGI [5] | TGI [6] | TGI [7] | TGI [8] | TGI [9] | TGI [10] | TGI [11]

O=C1OC(c2ccccc2)=NC1c1ccccc1 (configuration not stated)
> 100 µM: TGI [1] | TGI [2] | TGI [3] | TGI [4] | TGI [5] | TGI [6] | TGI [7] | TGI [8] | TGI [9] | TGI [10] | TGI [11]

NS(=O)(=O)c1ccc(NC(=O)N/N=C/c2ccccc2O)cc1
> 100 µM: TGI [1] | TGI [2] | TGI [3] | TGI [4] | TGI [5] | TGI [7] | TGI [8] | TGI [9] | TGI [10] | TGI [11]
55.6 µM: TGI [6]

COC1(CC[C@@H](C)COC2OC(CO)C(O)C(O)C2O)O[C@H]2C[C@H]3[C@@H]4CC=C5C[C@@H](OC6OC(CO)C(OC7OC(C)C(O)C(O)C7O)C(O)C6OC6OC(C)C(O)C(O)C6O)CC[C@]5(C)[C@H]4CC[C@]3(C)[C@H]2[C@@H]1C (some centres not stated)
> 26.1 µM: TGI [10]
8.47 µM: TGI [3]
1.99 µM: TGI [2]
7.97 µM: TGI [7]
4.02 µM: TGI [1]
23.1 µM: TGI [4]
2.86 µM: TGI [11]
5.22 µM: TGI [5]
8.38 µM: TGI [9]
4.31 µM: TGI [8]
inactive: GI50 [2] 0.645 µM | GI50 [3] 2.39 µM | GI50 [4] 8.04 µM | GI50 [5] 2.02 µM | GI50 [7] 2.32 µM | GI50 [8] 1.61 µM | GI50 [9] 2.56 µM | GI50 [10] 5.36 µM | GI50 [11] 1.22 µM
4.18 µM: TGI [6]

C[C@@H](CC(O)C(O)C(C)(C)O)C1CCC23CC12CCC1[C@@]2(C)CCC(O)C(C)(C)C2CC(OC2OC(CO)C(O)C(O)C2O)[C@]13C (some centres not stated)
> 10 µM: TGI [1] | TGI [2] | TGI [3] | TGI [4] | TGI [5] | TGI [6] | TGI [7] | TGI [8] | TGI [9] | TGI [10] | TGI [11]

O=C(CNc1ccccn1)Nn1cnc2ccc(S(=O)(=O)Nc3ccccn3)cc2c1=O
> 100 µM: TGI [1] | TGI [2] | TGI [3] | TGI [4] | TGI [5] | TGI [6] | TGI [7] | TGI [8] | TGI [9] | TGI [10] | TGI [11]

COC(=O)C(CC(C)C)NC(=O)C(NC(=O)c1ccc(-c2ccc(Cl)cc2Cl)o1)C(C)C (configuration not stated)
64.9 µM: TGI [9]
> 100 µM: TGI [3] | TGI [6] | TGI [11]
44.7 µM: TGI [10]
84.5 µM: TGI [4]
45.9 µM: TGI [7]
35.1 µM: TGI [1]
30.9 µM: TGI [2]
46 µM: TGI [8]
52.6 µM: TGI [5]

COc1ccc(C(O)/C(=N/N)c2nc3ccc(Cl)cc3[nH]c2=O)cc1 (configuration not stated)
> 100 µM: TGI [1] | TGI [2] | TGI [3] | TGI [4] | TGI [5] | TGI [6] | TGI [7] | TGI [8] | TGI [9] | TGI [10] | TGI [11]
